We go through 14 compounds from PubChem BioAssay (NCI).

The structures appear in SMILES notation.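 Following 48 hours of exposure in 96-well plates, responses at five concentrations were used to interpolate endpoints linearly. Here, GI50 denotes the concentration required for 50% inhibition of growth. TGI denotes the concentration required for complete inhibition of growth.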

Among the test systems are HL-60(TB) leukemia; HCC-2998 colon; K-562 leukemia; SK-MEL-5 melanoma; NCI-H460 lung; HCT-15 colon; HOP-62 NSCLC; SK-MEL-28 melanoma.
Holding throughout (test): NCI tumour cell line growth inhibition, 48 h

With `CCC[CH2][Sn]1([CH2]CCC)[S]CC[N]1S(=O)(=O)c1ccc(C)cc1`, the GI50 in the assay on HL-60(TB) leukemia was 0.581 µM; with HCC-2998 colon, 1.95 µM; in the assay on K-562 leukemia it was 0.341 µM; in the assay on SK-MEL-5 melanoma, 1.68 µM; with NCI-H460 lung it was 2.5 µM; with HCT-15 colon, 1.51 µM. The figures for the GI50 in the assay on HOP-62 NSCLC and in the assay on SK-MEL-28 melanoma were 2.22 µM and 1.29 µM, respectively. Further, the TGI came to 2.73 µM with HL-60(TB) leukemia; 3.44 µM with HCC-2998 colon; 1.97 µM in the assay with K-562 leukemia; 3.2 µM in the assay with SK-MEL-5 melanoma; 5.44 µM in the assay on NCI-H460 lung; 2.93 µM in the assay with HCT-15 colon. For the same compound, the TGI with HOP-62 NSCLC stood at 3.83 µM; in the assay on SK-MEL-28 melanoma, 2.61 µM.
On to `COc1ccc2c(c1)CN1CCc3c(cc(OC)c(OC)c3OC)C1C2` (centres undefined), for which the TGI in the assay on HL-60(TB) leukemia, in the assay with HCC-2998 colon, in the assay with K-562 leukemia, in the assay with SK-MEL-5 melanoma, in the assay on HCT-15 colon and with HOP-62 NSCLC was greater than 100 µM in each case. The compound also yielded a TGI with SK-MEL-28 melanoma greater than 100 µM.
As for `C[C@H]1C=C2C(=O)O[C@H]3CC[C@@H](C1)[C@@]23O`, the TGI in the assay on HL-60(TB) leukemia turned out to be 4.55 µM; in the assay with HCC-2998 colon, 26.8 µM; with K-562 leukemia, 8.26 µM; in the assay with SK-MEL-5 melanoma, 16.6 µM; in the assay on NCI-H460 lung, 19.4 µM; with HCT-15 colon, 14.6 µM. This compound also registered a TGI in the assay on SK-MEL-28 melanoma of 16.1 µM.
`CC(=O)Oc1ccc2c(c1)C(=O)c1nc(C)c(C)nc1C2=O`: the TGI was 56.4 µM in the assay on HL-60(TB) leukemia; greater than 100 µM with HCC-2998 colon; greater than 100 µM with K-562 leukemia; 30.1 µM in the assay with SK-MEL-5 melanoma; greater than 90.1 µM with NCI-H460 lung; greater than 100 µM in the assay with HCT-15 colon. Also, the TGI in the assay with HOP-62 NSCLC and in the assay with SK-MEL-28 melanoma was greater than 100 µM in each case.
Regarding `C=C1C(OC(C)=O)CC(OC(C)=O)C2(C)C(OC(C)=O)C(OC(C)=O)C3=C(C)C(OC(=O)/C=C/c4ccccc4)CC(C(OC(C)=O)C12)C3(C)C` (centres undefined), the TGI in the assay with HL-60(TB) leukemia, in the assay with HCC-2998 colon, with K-562 leukemia, in the assay with SK-MEL-5 melanoma, in the assay with NCI-H460 lung and in the assay on HCT-15 colon was greater than 100 µM throughout. Also, the TGI in the assay with HOP-62 NSCLC is greater than 100 µM.
For `CNC(=O)CN(CC(=O)O)C(=O)NC`, the TGI with HL-60(TB) leukemia, in the assay with HCC-2998 colon, with K-562 leukemia, in the assay with SK-MEL-5 melanoma, in the assay on HCT-15 colon and in the assay on HOP-62 NSCLC was greater than 100 µM in each case.
As to `C=C1C[C@@H]2C[C@@H](C)CC(O)[C@]2(CCCN)C1O` (some centres undefined), the TGI with HL-60(TB) leukemia, in the assay with HCC-2998 colon, in the assay on K-562 leukemia, in the assay with SK-MEL-5 melanoma, in the assay with NCI-H460 lung and in the assay with HOP-62 NSCLC was greater than 100 µM throughout. In the assay on SK-MEL-28 melanoma, the TGI was greater than 100 µM.
As to `CC1=CCCC2C(C=O)(C1)CC(C)C2(CO)CC/C(=C/CO)CO` (centres undefined), the TGI in the assay with HCC-2998 colon, in the assay on K-562 leukemia, with SK-MEL-5 melanoma, in the assay with NCI-H460 lung, with HCT-15 colon and in the assay on SK-MEL-28 melanoma was greater than 100 µM in each case.
As for `CO[C@@]1(c2ccccc2)O[C@H]2OCCC2[C@H]1c1ccc(Cl)cc1` (some centres undefined), the TGI in the assay with HCC-2998 colon is greater than 100 µM; with K-562 leukemia it was greater than 100 µM; in the assay on SK-MEL-5 melanoma it was 33.1 µM; with NCI-H460 lung, 57.8 µM; in the assay with HCT-15 colon, greater than 100 µM; with HOP-62 NSCLC it was greater than 100 µM. The compound also registered a TGI in the assay with SK-MEL-28 melanoma greater than 100 µM.
In the case of `CCC(CO)Nc1nc2c(c(=O)n(C)c(=O)n2C)n1CCO` (centres undefined), the TGI with HCC-2998 colon, with K-562 leukemia, in the assay with SK-MEL-5 melanoma, in the assay on HCT-15 colon and with SK-MEL-28 melanoma was greater than 100 µM in each case.
Take `Nc1c2ccccc2nc2c(C(=O)Nc3ccc(S(N)(=O)=O)cc3)cccc12`: the TGI in the assay with HCC-2998 colon, with K-562 leukemia, in the assay with SK-MEL-5 melanoma, in the assay with NCI-H460 lung, in the assay on HCT-15 colon and in the assay with HOP-62 NSCLC was greater than 100 µM in each case. In the assay with SK-MEL-28 melanoma, this compound yielded a TGI greater than 100 µM.
As for `O=C1NC2C(O)CCCCC2C12CCCCC2` (centres undefined), the TGI with HL-60(TB) leukemia, in the assay on K-562 leukemia, in the assay on SK-MEL-5 melanoma, in the assay on NCI-H460 lung, with HCT-15 colon and in the assay with HOP-62 NSCLC was greater than 100 µM in each case. The same compound had a TGI in the assay with SK-MEL-28 melanoma greater than 100 µM.
`c1ccc(OC2=NC3=S(S2)SC(Oc2ccccc2)=N3)cc1`: the TGI is 42.5 µM in the assay with HL-60(TB) leukemia; 35.2 µM with HCC-2998 colon; 38 µM in the assay on K-562 leukemia; 36.3 µM with SK-MEL-5 melanoma; greater than 100 µM in the assay on NCI-H460 lung; 43.3 µM in the assay with HCT-15 colon. The compound further had a TGI in the assay with HOP-62 NSCLC of 67.1 µM.
Take `COC(=O)N/N=C(\C)CC(=O)Nc1ccc(Cl)cc1`: the TGI in the assay on HL-60(TB) leukemia, with HCC-2998 colon, with K-562 leukemia, in the assay on SK-MEL-5 melanoma, in the assay on NCI-H460 lung and in the assay with HOP-62 NSCLC was greater than 100 µM each time. This compound showed a TGI with SK-MEL-28 melanoma greater than 100 µM.
